Measured values as given in patent publication US10273236B2, “Macrocyclic factor XIa inhibitors bearing heterocyclic groups” (Bristol-Myers Squibb Company, priority 2014, dated 2019).
Structures can show the parent of a compound that is named as a salt.

Key:
[1] = molecular target: T1, purified human plasma kallikrein (Homo sapiens, UniProt P03952); test: Plasma kallikrein inhibition assay, chromogenic substrate S-2302 (Ki); type: biochemical
T1 construct: Plasma prekallikrein is a zymogen of a trypsin-like serine protease; purchased Enzyme Research Laboratories
T1 sequence (P03952 391-638 limits assumed): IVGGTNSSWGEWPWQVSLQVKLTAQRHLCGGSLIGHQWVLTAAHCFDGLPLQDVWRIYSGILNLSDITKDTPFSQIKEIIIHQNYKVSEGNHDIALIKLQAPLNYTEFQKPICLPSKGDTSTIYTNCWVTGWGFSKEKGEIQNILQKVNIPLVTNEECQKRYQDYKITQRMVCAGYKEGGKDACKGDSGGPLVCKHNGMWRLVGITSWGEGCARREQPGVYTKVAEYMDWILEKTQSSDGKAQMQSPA
T1 sequence (P03952 20-390 partner limits assumed): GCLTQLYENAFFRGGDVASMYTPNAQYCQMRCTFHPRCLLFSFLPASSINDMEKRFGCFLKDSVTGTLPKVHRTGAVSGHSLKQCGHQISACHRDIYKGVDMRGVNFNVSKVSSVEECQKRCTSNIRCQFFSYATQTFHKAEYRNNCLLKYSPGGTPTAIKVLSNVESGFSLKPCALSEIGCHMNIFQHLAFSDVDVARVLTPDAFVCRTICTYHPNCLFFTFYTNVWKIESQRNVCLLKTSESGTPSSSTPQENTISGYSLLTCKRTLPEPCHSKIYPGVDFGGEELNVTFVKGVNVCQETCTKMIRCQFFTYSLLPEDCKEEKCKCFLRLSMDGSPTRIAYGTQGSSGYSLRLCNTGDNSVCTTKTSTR
Method: (§1) The effectiveness of compounds of the present invention as inhibitors of the coagulation Factors XIa, VIIa, IXa, Xa, XIIa, plasma kallikrein or thrombin, can be determined using a relevant purified serine protease, respectively, and an appropriate synthetic substrate. The rate of hydrolysis of the chromogenic or fluorogenic substrate by the relevant serine protease was measured both in the absence and presence of compounds of the present invention. […] A decrease in the rate of absorbance or fluorescence change in the presence of inhibitor is indicative of enzyme inhibition. Such methods are known to one skilled in the art. The results of this assay are expressed as the inhibitory constant, Ki.
Plasma kallikrein determinations were made in 0.1 M sodium phosphate buffer at a pH of 7.5 containing 0.1-0.2 M sodium chloride and 0.5% PEG 8000. Determinations were made using purified human plasma kallikrein (Enzyme Research Laboratories) at a final assay concentration of 200 pM and the synthetic substrate S-2302 (H-(D)-Pro-Phe-Arg-pNA; Chromogenix) at a concentration of 0.00008-0.0004 M.
(§2) Values of Ki were determined by allowing the protease to react with the substrate in the presence of the inhibitor.
(§3) Reactions were allowed to go for periods of 20-180 minutes (depending on the protease) and the velocities (rate of absorbance or fluorescence change versus time) were measured.
(§4) The following relationships were used to calculate Ki values: (Vmax*S)/(Km+S) (vo−vs)/vs=I/(Ki(1+S/Km)) for a competitive inhibitor with one binding site; or vs/vo=A+((B−A)/1+((IC50/(I)^n))); and Ki=IC50/(1+S/Km) for a competitive inhibitor where: […]

[2] = molecular target: T2, purified human Factor XIa (Homo sapiens, UniProt P03951); test: Factor XIa inhibition assay, chromogenic substrate S-2366 (Ki); type: biochemical
T2 construct: purchased Haematologic Technologies
T2 sequence (P03951 388-625 limits assumed): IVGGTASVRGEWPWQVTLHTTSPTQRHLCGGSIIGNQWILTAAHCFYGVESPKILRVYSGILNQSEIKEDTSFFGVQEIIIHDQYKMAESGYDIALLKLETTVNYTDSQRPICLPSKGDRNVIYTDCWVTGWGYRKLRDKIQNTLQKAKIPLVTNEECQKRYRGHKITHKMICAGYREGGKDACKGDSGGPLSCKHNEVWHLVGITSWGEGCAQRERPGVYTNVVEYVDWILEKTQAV
T2 sequence (P03951 19-387 partner limits assumed): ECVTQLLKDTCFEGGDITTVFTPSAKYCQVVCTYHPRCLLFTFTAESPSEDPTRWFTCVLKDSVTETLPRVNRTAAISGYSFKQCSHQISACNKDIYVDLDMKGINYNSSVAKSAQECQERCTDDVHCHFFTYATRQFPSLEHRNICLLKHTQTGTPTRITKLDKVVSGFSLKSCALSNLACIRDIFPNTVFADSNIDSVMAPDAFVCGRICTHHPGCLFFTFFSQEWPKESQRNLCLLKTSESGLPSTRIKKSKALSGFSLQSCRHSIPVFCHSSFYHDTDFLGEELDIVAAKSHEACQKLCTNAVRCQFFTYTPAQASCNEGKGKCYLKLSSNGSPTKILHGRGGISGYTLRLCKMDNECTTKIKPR
Method: as §1
Factor XIa determinations were made in 50 mM HEPES buffer at pH 7.4 containing 145 mM NaCl, 5 mM KCl, and 0.1% PEG 8000 (polyethylene glycol; JT Baker or Fisher Scientific). Determinations were made using purified human Factor XIa at a final concentration of 25-200 pM (Haematologic Technologies) and the synthetic substrate S-2366 (pyroGlu-Pro-Arg-pNA; Chromogenix or AnaSpec) at a concentration of 0.0002-0.001 M.
as §2, §3, §4

Row | SMILES | Ki [1] | Ki [2]
1 | C[C@@H]1CCC[C@H](N2CCC(c3c(F)ccc(Cl)c3F)=CC2=O)c2cc(ccn2)-c2nn(-c3ccnc(O)c3)cc2NC1=O [Example 9, (9R,13S)-13-[4-(3-chloro-2,6-difluorophenyl)-6-oxo-1,2,3,6-tetrahydropyridin-1-yl]-4-(2-hydroxypyridin-4-yl)-9-methyl-3,4,7,15-tetraazatricyclo[12.3.1.0^2,6]octadeca-1(18),2,5,14,16-pentaen-8-one] | 14 nM | 14 nM
2 | CCn1ncc2c1-c1ccnc(c1)[C@@H](N1CCC(c3c(F)ccc(Cl)c3F)=CC1=O)CCC[C@@H](C)C(=O)N2 [Example 10, (9R,13S)-13-[4-(3-chloro-2,6-difluorophenyl)-6-oxo-1,2,3,6-tetrahydropyridin-1-yl]-3-ethyl-9-methyl-3,4,7,15-tetraazatricyclo[12.3.1.0^2,6]octadeca-1(18),2(6),4,14,16-pentaen-8-one] | 50 nM | 14 nM
3 | C[C@@H]1CCC[C@H](N2CCC(c3c(OC(F)F)ccc(Cl)c3F)=CC2=O)c2cc(ccn2)-c2c(cnn2C(F)F)NC1=O [Example 21, (9R,13S)-13-{4-[3-chloro-6-(difluoromethoxy)-2-fluorophenyl]-6-oxo-1,2,3,6-tetrahydropyridin-1-yl}-3-(difluoromethyl)-9-methyl-3,4,7,15-tetraazatricyclo[12.3.1.0^2,6]octadeca-1(18),2(6),4,14,16-pentaen-8-one] | 40 nM | 0.69 nM
4 | C[C@@H]1CCC[C@H](N2CCC(c3c(F)ccc(Cl)c3F)=CC2=O)c2cc(ccn2)-c2c(cnn2C(F)F)NC1=O [Example 22, (9R,13S)-13-[4-(3-chloro-2,6-difluorophenyl)-6-oxo-1,2,3,6-tetrahydropyridin-1-yl]-3-(difluoromethyl)-9-methyl-3,4,7,15-tetraazatricyclo [12.3.1.0^2,6]octadeca-1(18),2(6),4,14,16-pentaen-8-one] | 50 nM | 8 nM
5 | C[C@@H]1CCC[C@H](N2CCC(c3c(OC(F)F)ccc(Cl)c3F)=CC2=O)c2cc(ccn2)-c2c(cnn2C)NC1=O [Example 23, (9R,13S)-13-{4-[3-chloro-6-(difluoromethoxy)-2-fluorophenyl]-6-oxo-1,2,3,6-tetrahydropyridin-1-yl}-3,9-dimethyl-3,4,7,15-tetraazatricyclo[12.3.1.0^2,6]octadeca-1(18),2(6),4,14,16-pentaen-8-one] | 7 nM | 0.92 nM
6 | C[C@@H]1CCC[C@H](N2CCC(c3c(Cl)ccc(Cl)c3F)=CC2=O)c2cc(ccn2)-c2c(cnn2C)NC1=O [Example 24, (9R,13S)-13-[4-(3,6-dichloro-2-fluorophenyl)-6-oxo-1,2,3,6-tetrahydropyridin-1-yl]-3,9-dimethyl-3,4,7,15-tetraazatricyclo[12.3.1.0^2,6]octadeca-1(18),2(6),4,14,16-pentaen-8-one] | 6 nM | 2.7 nM
7 | CC(C)[C@@H]1CCC[C@H](N2CCC(c3cc(Cl)ccc3-n3cc(Cl)nn3)=CC2=O)c2cc(ccn2)-c2c(cnn2C)NC1=O [Example 25, (9S,13S)-13-{4-[5-chloro-2-(4-chloro-1H-1,2,3-triazol-1-yl)phenyl]-6-oxo-1,2,3,6-tetrahydropyridin-1-yl}-3-methyl-9-(propan-2-yl)-3,4,7,15-tetraazatricyclo[12.3.1.0^2,6]octadeca-1(18),2(6),4,14,16-pentaen-8-one] | 16 nM | 0.47 nM
8 | C[C@@H]1CCC[C@H](N2CCC(c3c(C(F)F)ccc(Cl)c3F)=CC2=O)c2cc(ccn2)-c2c(cnn2C)NC1=O [Example 26, (9R,13S)-13-{4-[3-chloro-6-(difluoromethyl)-2-fluorophenyl]-6-oxo-1,2,3,6-tetrahydropyridin-1-yl}-3,9-dimethyl-3,4,7,15-tetraazatricyclo [12.3.1.0^2,6]octadeca-1(18),2(6),4,14,16-pentaen-8-one] | 5 nM | 0.48 nM

The remaining compounds from weak to strong by Ki [1], led by results:

Row | Ki [1] | Ki [2] | SMILES
9 | 480 nM | 14 nM | C[C@@H]1CCC[C@H](N2CCC(c3cc(Cl)ccc3-n3ccnn3)=CC2=O)c2cc(ccn2)-c2nn(CC(=O)O)cc2NC1=O [Example 12, 2-(13-{4-[5-chloro-2-(1H-1,2,3-triazol-1-yl)phenyl]-6-oxo-1,2,3,6-tetrahydropyridin-1l-yl}-9-methyl-8-oxo-3,4,7,15-tetraazatricyclo[12.3.1.0^2,6]octadeca-1(18),2,5,14,16-pentaen-4-yl)acetic Acid]
10 | 110 nM | 1 nM | C[C@@H]1CCC[C@H](N2CCC(c3c(C(F)(F)F)ccc(Cl)c3F)=CC2=O)c2cc(ccn2)-c2c(cnn2C(F)F)NC1=O [Example 14, (9R,13S)-13-{4-[3-chloro-2-fluoro-6-(trifluoromethyl)phenyl]-6-oxo-1,2,3,6-tetrahydropyridin-1-yl}-3-(difluoromethyl)-9-methyl-3,4,7,15-tetraazatricyclo[12.3.1.0^2,6]octadeca-1(18),2(6),4,14,16-pentaen-8-one]
11 | 40 nM | 1.4 nM | C[C@H]1C(=O)Nc2cnn(C)c2-c2ccnc(c2)[C@@H](N2CCC(c3c(C(F)(F)F)ccc(Cl)c3F)=CC2=O)CCC1F (stereo partly drawn) [Example 20, (9S,13S)-13-{4-[3-chloro-2-fluoro-6-(trifluoromethyl)phenyl]-6-oxo-1,2,3,6-tetrahydropyridin-1-yl}-10-fluoro-3,9-dimethyl-3,4,7,15-tetraazatricyclo[12.3.1.0^2,6]octadeca-1(18),2(6),4,14,16-pentaen-8-one]
12 | 40 nM | 4.9 nM | C[C@@H]1CCC[C@H](n2ccc(-c3c(OC(F)F)ccc(Cl)c3F)cc2=O)c2cc(ccn2)-c2c(cnn2C)NC1=O [Example 27, (9R,13S)-13-{4-[3-chloro-6-(difluoromethoxy)-2-fluorophenyl]-2-oxo-1,2-dihydropyridin-1-yl}-3,9-dimethyl-3,4,7,15-tetraazatricyclo[12.3.1.0^2,6]octadeca-1(18),2(6),4,14,16-pentaen-8-one trifluoroacetate]
13 | 30 nM | 2.8 nM | [2H]C([2H])([2H])n1ncc2c1-c1ccnc(c1)[C@@H](N1CCC(c3c(C(F)(F)F)ccc(Cl)c3F)=CC1=O)CCC[C@@H](C)C(=O)N2 [Example 18, (9R,13S)-13-{4-[3-chloro-2-fluoro-6-(trifluoromethyl)phenyl]-6-oxo-1,2,3,6-tetrahydropyridin-1-yl}-3-(^2H3)methyl-9-methyl-3,4,7,15-tetraazatricyclo[12.3.1.0^2,6]octadeca-1(18),2(6),4,14,16-pentaen-8-one]
14 | 19 nM | 3.2 nM | C[C@@H]1CCC[C@H](n2ccc(-c3cc(Cl)ccc3C#N)cc2=O)c2cc(ccn2)-c2c(cnn2C(F)F)NC1=O [Example 4, 4-chloro-2-{1-[(9R,13S)-3-(difluoromethyl)-9-methyl-8-oxo-3,4,7,15-tetraazatricyclo[12.3.1.0^2,6]octadeca-1(18),2(6),4,14,16-pentaen-13-yl]-2-oxo-1,2-dihydropyridin-4-yl}benzonitrile]
15 | 17 nM | 0.19 nM | C[C@@H]1CCC[C@H](N2CCC(c3cc(Cl)ccc3-n3cc(Cl)nn3)=CC2=O)c2cc(ccn2)-c2c(cnn2CC(=O)O)NC1=O [Example 16, 2-[(9R,13S)-13-{4-[5-chloro-2-(4-chloro-1H-1,2,3-triazol-1-yl)phenyl]-6-oxo-1,2,3,6-tetrahydropyridin-1-yl}-9-methyl-8-oxo-3,4,7,15-tetraazatricyclo [12.3.1.0^2,6]octadeca-1(18),2(6),4,14,16-pentaen-3-yl]acetic acid]
16 | 10 nM | 0.15 nM | [2H]C([2H])([2H])n1ncc2c1-c1ccnc(c1)[C@@H](N1CCC(c3cc(Cl)ccc3-n3cc(Cl)nn3)=CC1=O)CCC[C@@H](C)C(=O)N2 [Example 17, (9R,13S)-13-{4-[5-chloro-2-(4-chloro-1H-1,2,3-triazol-1-yl)phenyl]-6-oxo-1,2,3,6-tetrahydropyridin-1-yl}-3-(^2H3)methyl-9-methyl-3,4,7,15-tetraazatricyclo[12.3.1.0^2,6]octadeca-1(18),2(6),4,14,16-pentaen-8-one]
17 | 10 nM | 1.4 nM | C[C@@H]1CCC[C@H](N2CCC(c3cc(Cl)ccc3C#N)=CC2=O)c2cc(ccn2)-c2c(cnn2C(F)F)NC1=O [Example 19, 4-chloro-2-{1-[(9R,13S)-3-(difluoromethyl)-9-methyl-8-oxo-3,4,7,15-tetraazatricyclo[12.3.1.0^2,6]octadeca-1(18),2(6),4,14,16-pentaen-13-yl]-6-oxo-1,2,3,6-tetrahydropyridin-4-yl}benzonitrile]
18 | 7 nM | 1.7 nM | C[C@@H]1CCC[C@H](N2CCC(c3c(C(F)(F)F)ccc(Cl)c3F)=CC2=O)c2cc(ccn2)-c2c(cnn2C)NC1=O [Example 6]
